# Patent US9211310B2, “Use of a Chinese medicine composition in preparing medicaments for treating secondary prevention of myocardial infarction” (TASLY PHARMACEUTICAL GROUP CO., LTD, priority 2010, dated 2015)
# System: patients after acute myocardial infarction
# Assay: Life quality, Seattle Angina Questionnaire (SAQ), same clinical trial
# Assay type: in vivo, human
# Settings: PP
# Source text: 3508 patients who were in accordance with the diagnostic standards of AMI for 28 days to 2 years and differentiated as Qi deficiency and blood stagnation syndrome by TCM were studied. 0.5 g Chinese medicine composition prepared by the method of EXAMPLE 1 (Coded as QSYQ) was administrated half an hour after meal, 3 times per day.
# There were 19 questions in the Seattle angina questionnaire (SAQ), including 5 parts: physical limitation (PL), anginal stability (AS), anginal frequency (AF), treatment satisfaction (TS) and disease perception (DP). After being given necessary explanation by doctors, the questions were answered independently by patients.
# They included the overall survival time, angina pectoris score, TCM symptom score and life quality score, where angina pectoris score, TCM symptom score and life quality score were evaluated at randomization, in 1st, 3rd, 6th, 9th, 12th month after treatment and 18th month after follow-up.
# All evaluation results of SAQ were described during the period of observation, and Wilcoxon rank sum test was used for inter-group comparison.
# The evaluation results in the SAQ were depicted in different observations, and inter-group comparison was tested by Wilcoxon Rank-sum test.
smiles,measurement,setting,value
"CC(=O)Oc1ccccc1C(=O)O [Control group, aspirine]","SAQ 5th question, <1 time per week: number of patients",9 months after treatment,412
same,"SAQ 5th question, No onset: % of patients",9 months after treatment,(4.66%)
same,"SAQ 5th question, No onset: number of patients",9 months after treatment,67
same,"SAQ 5th question, ≧3 times per week: % of patients",9 months after treatment,(29.49%)
same,"SAQ 5th question, ≧3 times per week: number of patients",9 months after treatment,424
same,"SAQ 5th question, ≧4 times per day: % of patients",9 months after treatment,(0.49%)
same,"SAQ 5th question, ≧4 times per day: number of patients",9 months after treatment,7
same,"SAQ 6th question, Dissatisfied: % of patients",9 months after treatment,(0.07%)
same,"SAQ 6th question, Dissatisfied: number of patients",9 months after treatment,1
same,"SAQ 6th question, Highly satisfied: % of patients",9 months after treatment,(24.93%)
same,"SAQ 6th question, Highly satisfied: number of patients",9 months after treatment,359
same,"SAQ 6th question, Mostly dissatisfied: % of patients",9 months after treatment,(1.53%)
same,"SAQ 6th question, Mostly dissatisfied: number of patients",9 months after treatment,22
same,"SAQ 6th question, Mostly satisfied: % of patients",9 months after treatment,(59.38%)
same,"SAQ 6th question, Mostly satisfied: number of patients",9 months after treatment,855
same,"SAQ 6th question, Partly satisfied: % of patients",9 months after treatment,(14.10%)
same,"SAQ 6th question, Partly satisfied: number of patients",9 months after treatment,203
same,"SAQ 7th question, Dissatisfied: % of patients",9 months after treatment,(0.07%)
same,"SAQ 7th question, Dissatisfied: number of patients",9 months after treatment,1
same,"SAQ 7th question, Highly satisfied: % of patients",9 months after treatment,(28.44%)
same,"SAQ 7th question, Highly satisfied: number of patients",9 months after treatment,409
same,"SAQ 7th question, Most dissatisfied: % of patients",9 months after treatment,(0.83%)
same,"SAQ 7th question, Most dissatisfied: number of patients",9 months after treatment,12
same,"SAQ 7th question, Mostly satisfied: % of patients",9 months after treatment,(59.74%)
same,"SAQ 7th question, Mostly satisfied: number of patients",9 months after treatment,859
same,"SAQ 7th question, Partly satisfied: % of patients",9 months after treatment,(10.92%)
same,"SAQ 7th question, Partly satisfied: number of patients",9 months after treatment,157
same,"SAQ Question 1-1 Mildly limited, number of patients",9 months after treatment,18
same,"SAQ Question 1-1 Mildly limited, percent of patients",9 months after treatment,(1.25%)
same,"SAQ Question 1-1 Moderately limited, number of patients",9 months after treatment,3
same,"SAQ Question 1-1 Moderately limited, percent of patients",9 months after treatment,(0.21%)
same,"SAQ Question 1-1 Not limited, number of patients",9 months after treatment,1366
same,"SAQ Question 1-1 Not limited, percent of patients",9 months after treatment,(95.06%)
same,"SAQ Question 1-1 Other reasons, number of patients",9 months after treatment,3
same,"SAQ Question 1-1 Other reasons, percent of patients",9 months after treatment,(0.21%)
same,"SAQ Question 1-1 Severely limited, number of patients",9 months after treatment,0
same,"SAQ Question 1-1 Severely limited, percent of patients",9 months after treatment,(0.00%)
same,"SAQ Question 1-1 Slightly limited, number of patients",9 months after treatment,47
same,"SAQ Question 1-1 Slightly limited, percent of patients",9 months after treatment,(3.27%)
same,"SAQ Question 1-2 Mildly limited, number of patients",9 months after treatment,20
same,"SAQ Question 1-2 Mildly limited, percent of patients",9 months after treatment,(1.39%)
same,"SAQ Question 1-2 Moderately limited, number of patients",9 months after treatment,4
same,"SAQ Question 1-2 Moderately limited, percent of patients",9 months after treatment,(0.28%)
same,"SAQ Question 1-2 Not limited, number of patients",9 months after treatment,1358
same,"SAQ Question 1-2 Not limited, percent of patients",9 months after treatment,(94.50%)
same,"SAQ Question 1-2 Other reasons, number of patients",9 months after treatment,5
same,"SAQ Question 1-2 Other reasons, percent of patients",9 months after treatment,(0.35%)
same,"SAQ Question 1-2 Severely limited, number of patients",9 months after treatment,0
same,"SAQ Question 1-2 Severely limited, percent of patients",9 months after treatment,(0.00%)
same,"SAQ Question 1-2 Slightly limited, number of patients",9 months after treatment,50
same,"SAQ Question 1-2 Slightly limited, percent of patients",9 months after treatment,(3.48%)
same,"SAQ Question 1-6: Mildly limited, patients (%)",9 months after treatment,(14.59%)
same,"SAQ Question 1-6: Moderately limited, patients (%)",9 months after treatment,(11.31%)
same,"SAQ Question 1-6: Not limited, patients (%)",9 months after treatment,(38.48%)
same,"SAQ Question 1-6: Other reasons, patients (%)",9 months after treatment,(0.91%)
same,"SAQ Question 1-6: Severely limited, patients (%)",9 months after treatment,(2.30%)
same,"SAQ Question 1-6: Slightly limited, patients (%)",9 months after treatment,(32.40%)
same,"SAQ Question 1-7: Mildly limited, patients (%)",9 months after treatment,(21.63%)
same,"SAQ Question 1-7: Moderately limited, patients (%)",9 months after treatment,(10.88%)
same,"SAQ Question 1-7: Not limited, patients (%)",9 months after treatment,(18.30%)
same,"SAQ Question 1-7: Other reasons, patients (%)",9 months after treatment,(3.25%)
same,"SAQ Question 1-7: Severely limited, patients (%)",9 months after treatment,(13.71%)
same,"SAQ Question 1-7: Slightly limited, patients (%)",9 months after treatment,(32.23%)
same,"SAQ Question 1-8: Mildly limited, patients (%)",9 months after treatment,(25.11%)
same,"SAQ Question 1-8: Moderately limited, patients (%)",9 months after treatment,(14.11%)
same,"SAQ Question 1-8: Not limited, patients (%)",9 months after treatment,(12.34%)
same,"SAQ Question 1-8: Other limited, patients (%)",9 months after treatment,(3.76%)
same,"SAQ Question 1-8: Severely limited, patients (%)",9 months after treatment,(17.23%)
same,"SAQ Question 1-8: Slightly limited, patients (%)",9 months after treatment,(27.45%)
same,"8th question: Dissatisfied, patients (%)",12 months after treatment,(0.00%)
same,"8th question: Highly satisfied, patients (%)",12 months after treatment,(26.80%)
same,"8th question: Mostly dissatisfied, patients (%)",12 months after treatment,(1.26%)
same,"8th question: Mostly satisfied, patients (%)",12 months after treatment,(61.16%)
same,"8th question: Partly satisfied, patients (%)",12 months after treatment,(10.78%)
same,"9th question: Few, patients (%)",12 months after treatment,(41.42%)
same,"9th question: Mild, patients (%)",12 months after treatment,(29.64%)
same,"9th question: Moderate, patients (%)",12 months after treatment,(4.48%)
